Literature values in patent US20230295183A1, “HOT MELT EXTRUDED SOLID DISPERSIONS CONTAINING A BCL2 INHIBITOR” (Newave Pharmaceutical Inc., priority 2020, published 2023).

Columns and labels:
H345 xenograft = conditions: 100 mg/kg/day, H345 xenograft model
[1] = system: xenograft models of small-cell lung cancer and acute lymphoblastic leukemia; conditions: oral administration, alone
[2] = in vivo
circulating platelets = conditions: clinical trial; dose-limiting thrombocytopenia
SCLC H146 cell line = conditions: read-out: IC50 against SCLC H146 cell line
Bcl-w = biological target: T1, Bcl-w (Homo sapiens, UniProt Q92843)
T1 sequence (Q92843 1-193): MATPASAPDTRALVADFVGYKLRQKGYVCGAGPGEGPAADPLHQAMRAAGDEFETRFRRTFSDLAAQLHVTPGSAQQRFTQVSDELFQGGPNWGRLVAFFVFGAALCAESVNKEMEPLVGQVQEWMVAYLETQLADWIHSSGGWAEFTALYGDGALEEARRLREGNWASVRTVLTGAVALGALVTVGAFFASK

RS4;11 xenografts = conditions: single dose of 100 mg/kg
CLL = conditions: read-out: average EC50, apoptosis in CLL
Mcl-1 = Mcl-1 (Homo sapiens, UniProt Q07820)
established tumors = conditions: mouse, in vivo

Sequence of Mcl-1 (Q07820 whole entry): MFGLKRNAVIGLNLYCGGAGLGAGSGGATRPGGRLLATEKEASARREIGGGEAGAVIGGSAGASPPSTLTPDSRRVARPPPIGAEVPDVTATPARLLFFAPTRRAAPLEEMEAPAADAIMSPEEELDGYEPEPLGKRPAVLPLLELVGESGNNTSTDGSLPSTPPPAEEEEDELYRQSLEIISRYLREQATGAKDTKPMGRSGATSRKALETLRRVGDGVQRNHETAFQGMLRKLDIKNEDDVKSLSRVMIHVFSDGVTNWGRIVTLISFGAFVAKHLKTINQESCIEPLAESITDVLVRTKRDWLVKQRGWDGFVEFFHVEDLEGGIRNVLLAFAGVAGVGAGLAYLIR

CC1(C)CCC(c2ccc(Cl)cc2)=C(CN2CCN(c3ccc(C(=O)NS(=O)(=O)c4ccc(N[C@H](CCN5CCOCC5)CSc5ccccc5)c(S(=O)(=O)C(F)(F)F)c4)cc3)CC2)C1 [ABT-263]
TGI (H345 xenograft): 80% | treated tumors indicating at least a 50% reduction in tumor volume (H345 xenograft): 20% | antitumor effect in xenograft models [1]: complete tumor regressions | oral bioavailability [2]: orally bioavailable | effect on number of circulating platelets (circulating platelets): rapid, concentration-dependent decrease in the number of circulating platelets | IC50 (SCLC H146 cell line): 110 nM | Ki (Bcl-w): ≤ 1 nM

CC1(C)CCC(CN2CCN(c3ccc(C(=O)NS(=O)(=O)c4ccc(NCC5CCOCC5)c([N+](=O)[O-])c4)c(Oc4cnc5[nH]ccc5c4)c3)CC2)=C(c2ccc(Cl)cc2)C1 [ABT-199]
maximal tumor growth inhibition (RS4;11 xenografts): 95% | tumor growth delay (RS4;11 xenografts): 152% | EC50 (CLL): 3 nM | activity to Mcl-1 (Mcl-1): no activity | EC50 (RS4;11 cells): 8 nM

CN(C)CC[C@H](CSc1ccccc1)Nc1ccc(S(=O)(=O)NC(=O)c2ccc(N3CCN(Cc4ccccc4-c4ccc(Cl)cc4)CC3)cc2)cc1[N+](=O)[O-] [ABT-737]
antitumor effect in animal models (established tumors): causes regression of established tumors | oral bioavailability [2]: not orally bioavailable | aqueous solubility: low aqueous solubility
